The text below walks through data of publication PMC9448861 (Frontiers in Pharmacology, 2022).

Common to all, as to type: in vivo, C57BL/6J mice
The nature of data set [1]: Pharmacokinetics of ketamine and its metabolite hydroxynorketamine in mouse serum, hippocampus and frontal cortex (noncompartmental analysis, LC-MS/MS). To be noted: for AUC0-∞ / Cmax / MRT / t0.5λz / tmax / λz: ketamine 10 mg/kg i.p.
The test system of data set [2] is Zn levels in the Hp and FC. Briefly: Analysis of zinc (F-AAS) in the Hp and FC. Conditions: CRS + ZnD mice; three doses. As to the method:
(§1) All the compounds/drugs used in the study were obtained commercially, except for hyperforin (sodium salt), which was received as a gift from Dr. Wilmar Schwabe GmbH and Co (Karlsruhe, Germany). […] The control group received only 0.9% NaCl.
The samples were mineralized before the experiments. Briefly, three independent test portions of 0.5 g each were weighed from each sample and transferred to Teflon vessels. Then, 2 mL of 30% H2O2 and 6 mL of 65% HNO3 (V) were added, and the mixture was subjected to wet mineralization in a closed system in a Magnum II mineralizer (ERTEC). Mineralization was carried out for 75 min with three cycles of magnetron operation, where the first 30 min was at 60% power, next 15 min was at 80% power, and the remaining 30 min was at 100% power. The mineralized solution thus obtained was heated on a hot plate at 120 °C for 60 min to remove the excess reagents. The samples were then quantitatively transferred to 10 mL flasks and used to determine the zinc content via the F–AAS method (adsorption and emission technique). An atomic absorption spectrometer (iCE 3500, Thermo Scientific, UK) was used to measure the Zn content; each sample was analyzed independently thrice, and the obtained results are presented as mean value ± standard error of mean (SEM).

Data set [3] has as its system mice subjected to CRS and CRS + ZnD. Briefly: Tail suspension test (TST) in mice subjected to CRS or CRS + ZnD. To be noted: three doses, 72 h after the last treatment. As to the method:
as §1
(§2) One week after acclimation, the mice were subjected to either a zinc-adequate feed (ZnA, 50 mg/kg) or zinc-deficient/low-Zn feed (ZnD, 3 mg/kg). Beginning from the second week, some ZnD mice were additionally subjected to 3 weeks of CRS. At the beginning of the 5th week, the mice were subjected to their appropriate treatment schedules or behavioral tests (see schemes in the figures).
(§3) CRS was performed in accordance with the procedures of [Ding et al. (2016]) with modifications. Mice from the stress groups were restrained in well-ventilated tubes with caps and holes for breathing (in a separate room from the control groups) for 3 h/day over 3 weeks. After each restraint period, the mice were transferred to housing cages. The control mice were housed at 6 mice per cage in an enriched environment and were handled every third day.
The TST was performed as described in a previous work ([Pochwat et al., 2018]). Briefly, each mouse was suspended individually by the tail using adhesive tape (2 cm from the tail tip) affixed to a solid flat surface, and immobility times were measured for 6 min. […]

Data set [4] shares this test system. Briefly: Sucrose preference test (SPT) in mice subjected to CRS or CRS + ZnD. On the procedure: as §1, §2, §3
Seven days before the tests, the control and stressed mice were singly housed. The tests were carried out as follows. Two bottles (water and 1% sucrose solution) were placed in each cage 63 h before the test. Twenty-four hours later, the bottles were switched from right to left. Fifteen hours before the tests, the animals were deprived of food, water, and sucrose. The tests lasted 2 h, and sucrose preference was calculated as a percentage of the volume of sucrose intake over the total volume of fluid intake (water and sucrose solution). The SPT was performed during the light phase.

Regarding `N[C@@]1(c2ccccc2Cl)CCC[C@@H](O)C1=O` [Hydroxynorketamine, (2R,6R;2S,6S)-hydroxynorketamine], the “AUC0-∞” value in data set [1] (frontal cortex, CRS + ZnD mice) is 148.57 µg·min/g; in data set [1] (frontal cortex, CRS mice), 154.18 µg·min/g; in data set [1] (frontal cortex, Control mice) it was 171.66 µg·min/g; in data set [1] (hippocampus, CRS + ZnD mice), 114.29 µg·min/g; in data set [1] (hippocampus, CRS mice), 121.64 µg·min/g; in data set [1] (hippocampus, Control mice), 137.36 µg·min/g. The Cmax (in general, the peak of the concentration-time curve) was 1838.33 ng/g in data set [1] (frontal cortex, CRS + ZnD mice); 2020.00 ng/g in data set [1] (frontal cortex, CRS mice); 1920.83 ng/g in data set [1] (frontal cortex, Control mice); 1540.00 ng/g in data set [1] (hippocampus, CRS + ZnD mice); 1536.83 ng/g in data set [1] (hippocampus, CRS mice); 1591.33 ng/g in data set [1] (hippocampus, Control mice). In addition, the peak concentration (Cmax) in data set [1] (serum, CRS + ZnD mice) worked out at 1726.00 ng/mL; in data set [1] (serum, CRS mice), 1269.00 ng/mL; in data set [1] (serum, Control mice), 1152.71 ng/mL. In addition, the MRT (in general, the average time that molecules of a dose stay in the body) in data set [1] (frontal cortex, CRS + ZnD mice) turned out to be 68.20 min; in data set [1] (frontal cortex, CRS mice) it was 72.72 min; in data set [1] (frontal cortex, Control mice), 74.68 min; in data set [1] (hippocampus, CRS + ZnD mice) it was 70.35 min; in data set [1] (hippocampus, CRS mice), 72.78 min; in data set [1] (hippocampus, Control mice) it was 80.93 min. Besides, the MRT is given as 73.20 min in data set [1] (serum, CRS + ZnD mice); 81.05 min in data set [1] (serum, CRS mice); 87.69 min in data set [1] (serum, Control mice). Besides, the t0.5λz was determined as 52.49 min in data set [1] (frontal cortex, CRS + ZnD mice); 59.38 min in data set [1] (frontal cortex, CRS mice); 50.01 min in data set [1] (frontal cortex, Control mice); 54.06 min in data set [1] (hippocampus, CRS + ZnD mice); 54.52 min in data set [1] (hippocampus, CRS mice); 58.88 min in data set [1] (hippocampus, Control mice). The t0.5λz in data set [1] (serum, CRS + ZnD mice) is listed as 56.28 min; in data set [1] (serum, CRS mice), 59.11 min; in data set [1] (serum, Control mice) it was 62.33 min. Besides, the tmax in data set [1] (frontal cortex, CRS + ZnD mice) came out at 10 min; in data set [1] (frontal cortex, CRS mice), 10 min; in data set [1] (frontal cortex, Control mice), 10 min; in data set [1] (hippocampus, CRS + ZnD mice), 10 min; in data set [1] (hippocampus, CRS mice), 10 min; in data set [1] (hippocampus, Control mice), 10 min. The tmax turned out to be 10 min in data set [1] (serum, CRS + ZnD mice); 10 min in data set [1] (serum, CRS mice); 60 min in data set [1] (serum, Control mice). Further, the λz in data set [1] (frontal cortex, CRS + ZnD mice) worked out at 0.013 min⁻¹; in data set [1] (frontal cortex, CRS mice), 0.012 min⁻¹; in data set [1] (frontal cortex, Control mice), 0.014 min⁻¹; in data set [1] (hippocampus, CRS + ZnD mice), 0.013 min⁻¹; in data set [1] (hippocampus, CRS mice), 0.013 min⁻¹; in data set [1] (hippocampus, Control mice) it was 0.012 min⁻¹. Further, the λz in data set [1] (serum, CRS + ZnD mice) was 0.013 min⁻¹; in data set [1] (serum, CRS mice) it was 0.012 min⁻¹; in data set [1] (serum, Control mice) it was 0.011 min⁻¹. Moreover, the “tissue-to-serum ratios for the metabolite as share of the values observed for the parent compound” value in data set [1] (in the FC) is “about 80%”; in data set [1] (in the serum and Hp), “about 40%”. Moreover, in data set [1] (serum, control and study groups), the “metabolite-to-parent Cmax ratio” value is reported as about 1.

Consider `C[C@@H](CN1CCC(Cc2ccccc2)CC1)[C@@H](O)c1ccc(O)cc1` [Ro, Ro 25–6981], for which, in data set [2], the “Zn levels in the Hp and FC” value was “reduced the Zn levels”. Moreover, in data set [3], the “immobility time in the TST” value is on record as “ineffective”. The “sucrose preference in the SPT” value in data set [4] (CRS + ZnD mice, three doses (ketamine 10 mg/kg, Ro 10 mg/kg, Hyp 2.5 mg/kg + Lan 10 mg/kg), 24 h after the last treatment) is “failed to restore sucrose preference”; in data set [4] (CRS mice, three doses (ketamine 10 mg/kg, Ro 10 mg/kg, Hyp 2.5 mg/kg + Lan 10 mg/kg), 24 h after the last treatment) it was “did not show any statistically significant antidepressant-like activities”.

For the compound `CN(C)CCCN1c2ccccc2CCc2ccccc21` [IMI, imipramine], the “sucrose preference in the SPT” value in data set [4] (CRS + ZnD mice, 10 mg/kg chronically (14 days), SPT 24 h after the last treatment) is “the same was not observed”; in data set [4] (CRS mice, 10 mg/kg chronically (14 days), SPT 24 h after the last treatment) it was “restored sucrose preference”.
